Measurements: patent publication US8263610B2, “Substituted imidazolyl-5,6-dihydrobenzo[N]isoquinoline compounds” (ArQule, Inc., priority 2008, dated 2012)
Counter-ions that a name gives are not always drawn.

`O=S(=O)(c1ccccc1)N1CCc2c(cnc3[nH]ncc23)C1` gave a melting point of 270 to 271 °C. In the case of `S=C(Nc1ccccc1)N1CCc2c(cnc3[nH]ncc23)C1`, the melting point is reported as 200 to 202 °C. Compound `COc1ccc(CN2CCc3c(cnc4c3cnn4Cc3ccc(OC)cc3)C2)cc1` has a melting point of 105 to 107 °C. For `O=C(Nc1ccccc1)NC1CCc2c(cnc3[nH]ncc23)C1` (centres unmarked), the melting point was > 216 °C. For `O=C(Nc1ccccc1)C1CCc2c(cnc3[nH]ncc23)C1` (centres unmarked), the melting point was > 300 °C. With `COc1ccc(Cn2ncc3c4c(cnc32)CNCC4)cc1` the melting point was 96 to 102 °C. `O=C(O)C(F)(F)F.c1nc2[nH]ncc2c2c1CNCC2` gave a melting point of 224 to 227 °C. With `Cl.c1ccc(-c2n[nH]c3ncc4c(c23)CCNC4)cc1` the melting point was 265 °C (dec.). With `O=C(C(NCCO)c1ccccc1)N1CCc2c(cnc3[nH]nc(Br)c23)C1.O=C(O)C(F)(F)F` (centres unmarked) the melting point was > 115 °C. With `Cl.O=C(C(c1ccccc1)N1CCNCC1)N1CCc2c(cnc3[nH]nc(Br)c23)C1` (centres unmarked) the melting point was > 245 °C. With `N[C@H](C(=O)N1CCc2c(cnc3[nH]ncc23)C1)c1ccccc1.O=C(O)C(F)(F)F` the melting point was > 100 °C. In the case of `c1ccc(CNC2CCc3c(cnc4[nH]ncc34)C2)cc1` (centres unmarked) (as salt: TFA), the melting point is reported as > 232 °C. For `Clc1ccccc1C1Cc2cnc3[nH]nc(-c4cnn(C5CCNCC5)c4)c3c2-c2ccccc21` (centres unmarked) (as salt: TFA) [Example 19, 7-(2-chlorophenyl)-1-(1-piperidin-4-yl-1H-pyrazol-4-yl)-6,7-dihydro-3H-benzo[f]pyrazolo[3,4-c]isoquinoline], the melting point was > 225 °C. For `O=C(C(NCCc1c[nH]c2ccccc12)c1ccccc1)N1CCc2c(cnc3[nH]ncc23)C1` (centres unmarked) (as salt: TFA) [Example 84, N-(2-(1H-indol-3-yl)ethyl)-2-(8,9-dihydro-3H-pyrazolo[3,4-c][2,7]naphthyridin-7(6H)-yl)-2-oxo-1-phenylethanaminium 2,2,2-trifluoroacetate], the melting point was > 164 °C. `CN(C)CCNC(=O)c1cccc(NC(=O)N2CCc3c(cnc4[nH]ncc34)C2)c1` (as salt: TFA) [Example 95, N-(3-(2-(dimethylamino)ethylcarbamoyl)phenyl)-8,9-dihydro-3H-pyrazolo[3,4-c][2,7]naphthyridine-7(6H)-carboxamide] showed a melting point of 184 to 196 °C. In the case of `O=C(NCc1ccccc1)c1cccc(NC(=O)N2CCc3c(cnc4[nH]ncc34)C2)c1` (as salt: TFA) [Example 96, N-[3-(benzylcarbamoyl)phenyl]-3,6,8,9-tetrahydro-7H-pyrazolo[3,4-c][2,7]naphthyridine-7-carboxamide], the melting point is reported as > 135 °C. In the case of `O=C(c1ccccc1)c1c[nH]c2ncnc(N3CCc4c(cnc5[nH]ncc45)C3)c12` (as salt: TFA) [Example 435, (4-(8,9-dihydro-3H-pyrazolo[3,4-c][2,7]naphthyridin-7(6H)-yl)-7H-pyrrolo[2,3-d]pyrimidin-5-yl)(phenyl)methanone], the melting point is reported as 300 to 302 °C. `O=C(Nc1ccccc1)N1CCc2c(cnc3[nH]nc(C4=CCNCC4)c23)C1` (as salt: chloride) showed a melting point of 230 to 231 °C. With `NC(=O)c1cccc(-c2n[nH]c3ncc4c(c23)CCNC4)c1` (as salt: trifluoroacetate) the melting point was 240 °C (dec.). With `CC(=O)Nc1cccc(-c2n[nH]c3ncc4c(c23)CCNC4)c1` (as salt: trifluoroacetate) [Example 456, 1-(3-acetamidophenyl)-6,7,8,9-tetrahydro-3H-pyrazolo[3,4-c][2,7]naphthyridin-7-ium 2,2,2-trifluoroacetate] the melting point was 245 °C (dec.). In the case of `COc1ccc(Cn2ncc3c4c(cnc32)CC(NC(=O)c2ccccc2)CC4)cc1` (centres unmarked) [Compound 5, N-[3-(4-methoxybenzyl)-6,7,8,9-tetrahydro-3H-pyrazolo[3,4-c]isoquinolin-7-yl]benzamide], the melting point is reported as > 65 °C. `COc1ccc(Cn2ncc3c4c(cnc32)CN(S(=O)(=O)c2ccccc2)CC4)cc1` [Compound 6, 3-(4-methoxybenzyl)-7-(phenylsulfonyl)-6,7,8,9-tetrahydro-3H-pyrazolo[3,4-c][2,7]naphthyridine] showed a melting point of 136 to 138 °C. In the case of `Clc1ccc(C2Cc3cnc4[nH]ncc4c3-c3ccccc32)cc1Cl` (centres unmarked) [Example 1, 7-(3,4-dichlorophenyl)-6,7-dihydro-3H-benzo[f]pyrazolo[3,4-c]isoquinoline], the melting point is reported as 168 to 170 °C. `c1ccc(C2Cc3cnc4[nH]ncc4c3-c3ccccc32)cc1` (centres unmarked) [Example 2, 7-phenyl-6,7-dihydro-3H-benzo[f]pyrazolo[3,4-c]isoquinoline] gave a melting point of 143 to 145 °C. Work on `Fc1ccc(C2Cc3cnc4[nH]ncc4c3-c3ccccc32)cc1F` (centres unmarked) [Example 3, 7-(3,4-difluorophenyl)-6,7-dihydro-3H-benzo[f]pyrazolo[3,4-c]isoquinoline] yielded a melting point of 195 to 196 °C. `Clc1ccccc1C1Cc2cnc3[nH]ncc3c2-c2ccccc21` (centres unmarked) [Example 5, 7-(2-dichlorophenyl)-6,7-dihydro-3H-benzo[f]pyrazolo[3,4-c]isoquinoline] gave a melting point of 88 to 91 °C. For `Fc1ccc(C2Cc3cnc4[nH]ncc4c3-c3ccccc32)cc1` (centres unmarked) [Example 6, 7-(4-fluorophenyl)-6,7-dihydro-3H-benzo[f]pyrazolo[3,4-c]isoquinoline], the melting point was 167 to 169 °C. Work on `Cc1cc(C)c2c(c1)-c1c(cnc3[nH]ncc13)CC2` [Example 7, 8,10-dimethyl-6,7-dihydro-3H-benzo[f]pyrazolo[3,4-c]isoquinoline] yielded a melting point of 152 to 155 °C. In the case of `COc1cccc2c1CCc1cnc3[nH]ncc3c1-2` [Example 8, 8-methoxy-6,7-dihydro-3H-benzo[f]pyrazolo[3,4-c]isoquinoline], the melting point is reported as 85 to 89 °C. `COc1ccc2c(c1)-c1c(cnc3[nH]ncc13)CC2` [Example 9, 10-methoxy-6,7-dihydro-3H-benzo[f]pyrazolo[3,4-c]isoquinoline] showed a melting point of 95 to 97 °C. In the case of `c1cnc2c(c1)CCc1cnc3[nH]ncc3c1-2` [Example 10, 6,9-dihydro-5H-pyrazolo[3,4-k][1,8]phenanthroline], the melting point is reported as 263 to 265 °C. `O=[N+]([O-])c1ccc2c(c1)-c1c(cnc3[nH]ncc13)CC2` [Example 14, 10-nitro-6,7-dihydro-3H-benzo[f]pyrazolo[3,4-c]isoquino line] showed a melting point of 214 to 217 °C. `O=c1ccc2c([nH]1)CCc1cnc3[nH]ncc3c1-2` [Example 15, 6,7-dihydro-3H-pyrazolo[4,3-a][3,7]phenanthrolin-9(8H)-one] showed a melting point of 290 to 296 °C. With `Brc1n[nH]c2ncc3c(c12)-c1ccccc1C(c1ccccc1)C3` (centres unmarked) [Example 16, 1-bromo-7-phenyl-6,7-dihydro-3H-benzo[f]pyrazolo[3,4-c]isoquinoline] the melting point was 176 to 178 °C. `CC(C)(C)OC(=O)N1CCC(n2cc(-c3n[nH]c4ncc5c(c34)-c3ccccc3C(c3ccccc3Cl)C5)cn2)CC1` (centres unmarked) [Example 18, tert-butyl 4-(4-(7-(2-chlorophenyl)-6,7-dihydro-3H-benzo[f]pyrazolo[3,4-c]isoquinolin-1-yl)-1H-pyrazol-1-yl)piperidine-1-carboxylate] gave a melting point of 139 to 141 °C. Compound `c1ccc2c(c1)NCCc1cnc3[nH]ncc3c1-2` [Example 29, 3,6,7,8-tetrahydropyrazolo[4′,3′:5,6]pyrido[3,4-d][1]benzazepine] has a melting point of 215 to 217 °C. With `CC(C)(C)OC(=O)N1CCc2c(cnc3[nH]ncc23)C1` [Example 76, tert-butyl 8,9-dihydro-3H-pyrazolo[3,4-c][2,7]naphthyridine-7(6H)-carboxylate] the melting point was > 70 °C. For `CC(C)(C)OC(=O)N1CCc2c(cnc3[nH]nc(Br)c23)C1` [Example 77, tert-butyl 1-bromo-8,9-dihydro-3H-pyrazolo[3,4-c][2,7]naphthyridine-7(6H)-carboxylate], the melting point was > 65 °C. For `CC(C)(C)OC(=O)N1CCN(C(C(=O)N2CCc3c(cnc4[nH]nc(Br)c34)C2)c2ccccc2)CC1` (centres unmarked) [Example 91, tert-butyl 4-(2-(1-bromo-8,9-dihydro-3H-pyrazolo[3,4-c][2,7]naphthyridin-7(6H)-yl)-2-oxo-1-phenylethyl)piperazine-1-carboxylate], the melting point was 159 to 161 °C. `O=C(O)c1cccc(NC(=O)N2CCc3c(cnc4[nH]ncc34)C2)c1` [Example 93b, 3-(6,7,8,9-tetrahydro-3H-pyrazolo[3,4-c][2,7]naphthyridine-7-carboxamido)benzoic acid] gave a melting point of 237 to 241 °C. For `O=C(Nc1cccc(C(=O)N2CCC(n3c(=O)[nH]c4ccccc43)CC2)c1)N1CCc2c(cnc3[nH]ncc23)C1` [Example 94, N-(3-(4-(2-oxo-2,3-dihydro-1H-benzo[d]imidazol-1-yl)piperidine-1-carbonyl)phenyl)-8,9-dihydro-3H-pyrazolo[3,4-c][2,7]naphthyridine-7(6H)-carboxamide], the melting point was > 215 °C. For `COc1ccc(Cn2ncc3c4c(cnc32)CN(C(=O)Nc2cccc(C(=O)O)c2)CC4)cc1` [Example 153, 3-(3-(4-methoxybenzyl)-6,7,8,9-tetrahydro-3H-pyrazolo[3,4-c][2,7]naphthyridine-7-carboxamido)benzoic acid], the melting point was > 136 °C. `O=S(=O)(NC1CCc2c(cnc3[nH]ncc23)C1)c1ccccc1` (centres unmarked) [Example 158, N-(6,7,8,9-tetrahydro-3H-pyrazolo[3,4-c]isoquinolin-7-yl)benzenesulfonamide] showed a melting point of 228 to 229 °C. In the case of `O=C(Nc1ccccc1)N1CCc2c(cnc3[nH]ncc23)C1` [Example 318, N-phenyl-8,9-dihydro-3H-pyrazolo[3,4-c][2,7]naphthyridine-7(6H)-carboxamide], the melting point is reported as 184 to 186 °C. For `O=C(Nc1ccccc1)N1CCc2cnc3[nH]ncc3c2-c2ccccc21` [Example 319, N-phenyl-6,7-dihydropyrazolo[4′,3′:5,6]pyrido[3,4-d][1]benzazepine-8(3H)-carboxamide], the melting point was > 140 °C. In the case of `Cc1nc(-c2cccc(NC(=O)N3CCc4c(cnc5[nH]ncc45)C3)c2)cs1` [Example 401, N-(3-(2-methylthiazol-4-yl)phenyl)-8,9-dihydro-3H-pyrazolo[3,4-c][2,7]naphthyridine-7(6H)-carboxamide], the melting point is reported as > 155 °C. `Cc1nc(-c2cccc(NC(=O)N3CCc4c(cnc5[nH]nc(Br)c45)C3)c2)cs1` [Example 402, 1-bromo-N-(3-(2-methylthiazol-4-yl)phenyl)-8,9-dihydro-3H-pyrazolo[3,4-c][2,7]naphthyridine-7(6H)-carboxamide] gave a melting point of 258 to 261 °C.
